Test results taken from publication PMC11062922 (Nature Chemical Biology, 2023).

Assays:
ACVR2B = assay: Kinobeads competition binding: ACVR2B; parameters: species or system human; details: target ACVR2B
ADRBK1 = assay: Kinobeads competition binding: ADRBK1; parameters: species or system human; details: target ADRBK1
AP1G1 = assay: Kinobeads competition binding: AP1G1; parameters: species or system human; details: target AP1G1
BMPR1B = biological target: T1, BMPR1B (Homo sapiens, UniProt O00238); assay: Kinobeads competition binding: BMPR1B; details: target BMPR1B;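 note: selectivity score: engagement of this protein divided by summed engagement of all targets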
T1 construct: endogenous in cells
T1 sequence (O00238 14-502): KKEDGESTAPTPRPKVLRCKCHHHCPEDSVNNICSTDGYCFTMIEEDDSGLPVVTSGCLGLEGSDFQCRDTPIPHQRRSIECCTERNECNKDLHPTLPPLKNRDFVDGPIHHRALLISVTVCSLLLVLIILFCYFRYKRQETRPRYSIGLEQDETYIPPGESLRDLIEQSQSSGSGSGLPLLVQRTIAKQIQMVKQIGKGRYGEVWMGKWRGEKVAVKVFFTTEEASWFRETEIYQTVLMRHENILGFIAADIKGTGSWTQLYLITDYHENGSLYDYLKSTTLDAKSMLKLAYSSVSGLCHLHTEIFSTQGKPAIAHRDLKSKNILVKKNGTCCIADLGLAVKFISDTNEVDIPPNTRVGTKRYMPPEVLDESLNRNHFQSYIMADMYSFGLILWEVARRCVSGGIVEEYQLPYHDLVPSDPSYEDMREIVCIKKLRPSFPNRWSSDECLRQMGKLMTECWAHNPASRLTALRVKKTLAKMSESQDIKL

CDK10 = assay: Kinobeads competition binding: CDK10; parameters: species or system human; details: target CDK10
CDK7 = biological target: T2, CDK7 (Homo sapiens, UniProt P50613); assay: Kinobeads competition binding: CDK7; details: target CDK7
T2 construct: endogenous in cells
T2 sequence (P50613 whole entry): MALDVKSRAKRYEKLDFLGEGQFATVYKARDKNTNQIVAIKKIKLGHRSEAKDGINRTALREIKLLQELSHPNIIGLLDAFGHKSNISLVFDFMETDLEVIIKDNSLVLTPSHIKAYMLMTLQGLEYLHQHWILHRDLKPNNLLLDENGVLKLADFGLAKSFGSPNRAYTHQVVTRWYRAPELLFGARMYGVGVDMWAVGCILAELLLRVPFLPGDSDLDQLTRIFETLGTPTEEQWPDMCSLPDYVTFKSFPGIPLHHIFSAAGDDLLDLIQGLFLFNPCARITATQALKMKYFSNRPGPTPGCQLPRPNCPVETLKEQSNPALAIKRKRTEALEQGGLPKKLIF

FLAD1 = assay: Kinobeads competition binding: FLAD1; parameters: species or system human; details: target FLAD1;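 note: selectivity score: engagement of this protein divided by summed engagement of all targets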
MAP2K1 = assay: Kinobeads competition binding: MAP2K1; parameters: species or system human; details: target MAP2K1
MAP3K3 = assay: Kinobeads competition binding: MAP3K3; parameters: species or system human; details: target MAP3K3
MAP4K3 = assay: Kinobeads competition binding: MAP4K3; parameters: species or system human; details: target MAP4K3
MERTK = assay: Kinobeads competition binding: MERTK; parameters: species or system human; details: target MERTK
NNT = assay: Kinobeads competition binding: NNT; parameters: species or system human; details: target NNT;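 note: share of total target engagement due to this protein at one drug concentration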
[1] = system: phosphorylation sites in RKO cells; assay: Drug-perturbed phosphoproteome analysis in RKO cells; assay type: cell-based, human; details: RKO cells, 1 µM for 1 hour
Description: To be able to measure PKN3 activity in cells, bona fide substrates of the kinase would be needed but no such substrate has been conclusively validated yet. In search for such candidates, we compared the phosphoproteomes of RKO cells (human colorectal cancer cells expressing high PKN3 levels according to ProteomicsDB[53]) in response to the same three compounds (that only share PKN3 as a target), as well as THZ1 (a covalent inhibitor for which PKN3 is a reported off-target[51]) and in response to siRNA-mediated knockdown of PKN3 (Extended Data Fig. 9a,b). […] The respective numbers were far smaller for GSK949675A, GSK902056A (all four drugs used at 1 µM for 1 hour) or the siRNA experiment (48 h of knockdown; Fig. 5d, Extended Data Fig. 9d and Supplementary Table 5). Successful PKN3 knockdown (89 and 92% for 1 and 3 nM siRNA, respectively) was confirmed by parallel reaction monitoring (a quantitative mass spectrometry-based protein expression assay; Extended Data Fig. 10a).
For global phosphoproteomic analysis of PKN3 inhibitors, RKO cells were treated with 1 µM GSK949675A, THZ1, GSK902056A, SB-476429A or DMSO for 1 h in four biological replicates or PKN3 were knocked down as described. After treatment, cells were washed twice with PBS and lyzed by adding 300 µl of lysis buffer (40 mM Tris-HCl pH 7.6, 8 M Urea, EDTA-free protease inhibitor complete mini and phosphatase inhibitor cocktail). Lysates were sonicated (ten cycles, 30 s on, 30 s pause, at 4 °C) and subsequently cleared by centrifugation for 20 min at 21,000g at 4 °C. Protein concentration was determined by Bradford assay and 300 µg protein per condition was digested. After reduction with 10 mM DTT and alkylation of cysteine residues with 50 mM chloroacetamide, the Urea concentration was reduced to 1.5 M by adding […] of 40 mM Tris/HCl pH 7.6. Trypsin was added to a protease-to-protein ratio of 1:50 and digestion was performed over night at 37 °C and 700 r.p.m. on a thermoshaker. Samples were cooled down to room temperature and acidified to a pH < 3 with 0.5% trifluoroacetic acid (TFA) and desalted using 50 mg SepPak columns (Waters; wash solvent 0.07% TFA in deionized water; elution solvent 0.07% TFA, 50% ACN). Subsequently, samples were frozen at −80 °C and dried by vacuum centrifugation. Peptide concentrations were determined by NanoDrop 2000 spectrophotometer and peptide amounts were adjusted. Dried peptides were labeled with TMT6plex as published previously. […] Phosphopeptides were enriched using column based Fe-IMAC as described previously. Subsequently, phosphopeptides were separated into six fractions using high pH reversed-phase stage tips as described before. Samples were dried by vacuum centrifugation.
Nanoflow LC–MS/MS measurement of TMT-labeled phosphopeptides was performed using a Dionex Ultimate3000 nano HPLC coupled online to an Orbitrap Fusion Lumos Tribride (Thermo Fisher Scientific) mass spectrometer. Peptides were delivered to a trap column (75 μm × 2 cm, packed in house with 5 μm C18 resin; Reprosil-Pur AQ, Dr. Maisch) and washed for 10 min with 0.1% FA at a flow rate of 5 μl min^−1. […] MS1 spectra were recorded in the Orbitrap from 360 to 1,300 m/z at a resolution of 60,000 using an AGC target value of 4 × 10^5 charges and a maximum injection time of 20 ms. MS2 spectra were recorded in the Orbitrap at 15,000 resolution after HCD fragmentation using 35% NCE, an AGC target value of 5 × 10^4, maximum injection time of 22 ms and an isolation width of 0.7 m/z. The first mass was fixed to 100 m/z. The number of MS2 spectra was limited by a top ten method. For TMT quantification, an additional MS3 spectrum was acquired in the Orbitrap over a scan range of 100–1,000 m/z at 15,000 resolution (AGC of 1 × 10^5, maximum injection time of 50 ms). For this, fragment ions were selected by multi-notch isolation in the Quadrupole, allowing a maximum of ten notches and subsequently fragmentation by HCD at 55% NCE. Dynamic exclusion was set to 90 s. […]

## Nc1ncnc2[nH]c(-c3ccccc3)nc12 [AH5015_KCGS]
ACVR2B
  CATDS: 0
ADRBK1
  CATDS: 0
AP1G1
  CATDS: 0
BMPR1B
  CATDS: 0
CDK10
  CATDS: 0
CDK7
  CATDS: 0.1088
FLAD1
  CATDS: 0
MAP2K1
  CATDS: 0
MAP3K3
  CATDS: 0
MAP4K3
  CATDS: 0
MERTK
  CATDS: 0
NNT
  CATDS: 0

## CCN1CCN(Cc2ccc(Nc3ncc(F)c(-c4cc(F)c5nc(C)n(C(C)C)c5c4)n3)nc2)CC1 [Abemaciclib]
ACVR2B
  CATDS: 0
ADRBK1
  CATDS: 0
AP1G1
  CATDS: 0
BMPR1B
  CATDS: 0
CDK10
  CATDS: 0
CDK7
  CATDS: 0
FLAD1
  CATDS: 0
MAP2K1
  CATDS: 0
MAP3K3
  CATDS: 0
MAP4K3
  CATDS: 0
MERTK
  CATDS: 0
NNT
  CATDS: 0

## CN(C)C/C=C/C(=O)Nc1cc2c(Nc3ccc(F)c(Cl)c3)ncnc2cc1O[C@H]1CCOC1 [Afatinib]
AP1G1
  CATDS: 0
CDK10
  CATDS: 0
FLAD1
  CATDS: 0
NNT
  CATDS: 0

## CCc1cc2c(cc1N1CCC(N3CCOCC3)CC1)C(C)(C)c1[nH]c3cc(C#N)ccc3c1C2=O [Alectinib]
ACVR2B
  CATDS: 0
ADRBK1
  CATDS: 0
AP1G1
  CATDS: 0
BMPR1B
  CATDS: 0
CDK10
  CATDS: 0
CDK7
  CATDS: 0
FLAD1
  CATDS: 0
MAP2K1
  CATDS: 0
MAP3K3
  CATDS: 0
MAP4K3
  CATDS: 0
MERTK
  CATDS: 0
NNT
  CATDS: 0

## N#CC1(c2ccc(NC(=O)c3cccnc3NCc3ccncc3)cc2)CCCC1 [Apatinib]
ACVR2B
  CATDS: 0
ADRBK1
  CATDS: 0
AP1G1
  CATDS: 0
BMPR1B
  CATDS: 0
CDK10
  CATDS: 0
CDK7
  CATDS: 0
FLAD1
  CATDS: 0
MAP2K1
  CATDS: 0
MAP3K3
  CATDS: 0
MAP4K3
  CATDS: 0
MERTK
  CATDS: 0
NNT
  CATDS: 0

## CCn1c(-c2nonc2N)nc2c(C#CC(C)(C)O)nc(OCCN)cc21 [GSK902056A]
[1]
  number of perturbed phosphorylation sites: far smaller

## CCn1c(-c2nonc2N)nc2c(C#CC(C)(C)O)nc(OCCNC)cc21 [GSK949675A]
[1]
  number of perturbed phosphorylation sites: far smaller

## NCc1ccc(-c2nc(-c3ccncc3)c(-c3ccc(Cl)c(O)c3)[nH]2)cc1 [SB-476429-A]
[1]
  PKN3 activation loop p sites (S544 and T550): substantial reduction
  number of perturbed phosphorylation sites: a large number of p sites
